Data from ChEMBL document CHEMBL1201862, “PubChem BioAssay data set” (2004).
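All cell lines were grown in 96-well plates and treated with compound for 48 hours. GI50: concentration for 50% inhibition of growth.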 The source made the active and inactive calls. No stated cut-off is given here; in the data, active = GI50 up to about 1.1 µM and inactive = higher.

Experiments:
Assay in all cases: NCI anticancer screen, dose series, 48 h
786-0 = system: 786-0
BT-549 = system: BT-549
COLO 205 = system: COLO 205
HCC 2998 = system: HCC 2998
HL-60 = system: HL-60
HT-29 = system: HT-29
K562 = system: K562
LOX IMVI = system: LOX IMVI
MCF7 = system: MCF7
MDA-MB-231 = system: MDA-MB-231
MDA-MB-435 = system: MDA-MB-435
MOLT-4 = system: MOLT-4
NCI-H23 = system: NCI-H23
OVCAR-3 = system: OVCAR-3
SNB-19 = system: SNB-19
T47D = system: T47D
U-251 = system: U-251
KM12 = system: KM12
SF-539 = system: SF-539
SK-MEL-2 = system: SK-MEL-2

Measured: GI50

CN(C)CCN(C)P12(Oc3ccccc3O1)Oc1c(Cl)c(Cl)c(Cl)c(Cl)c1O2
inactive: 786-0 54.6 µM | BT-549 56.4 µM | COLO 205 > 100 µM | HCC 2998 > 100 µM | HL-60 18.8 µM | HT-29 43.8 µM | K562 35.6 µM | LOX IMVI 63 µM | MCF7 33.7 µM | MDA-MB-231 69.8 µM | MDA-MB-435 50.9 µM | MOLT-4 34 µM | NCI-H23 35.8 µM | OVCAR-3 27.9 µM | SNB-19 56.6 µM | T47D 59.8 µM | U-251 56.5 µM

N#CCCN(CCC#N)c1ccc(/C=C2\N=C(c3ccccc3)N(c3ccccc3)C2=O)cc1
inactive: 786-0 17 µM | BT-549 57.1 µM | COLO 205 9.38 µM | HL-60 3.07 µM | HT-29 8.97 µM | K562 18.5 µM | KM12 > 100 µM | LOX IMVI 7.21 µM | MCF7 > 100 µM | MDA-MB-231 > 100 µM | MDA-MB-435 > 100 µM | MOLT-4 8.59 µM | OVCAR-3 > 100 µM | SF-539 6.11 µM | SK-MEL-2 > 100 µM | SNB-19 > 100 µM | T47D > 100 µM | U-251 > 100 µM

COC(=O)Nc1nc2cc(NC(=O)c3cccs3)ccc2[nH]1
inactive: 786-0 50.9 µM | BT-549 55.1 µM | COLO 205 29.6 µM | HL-60 61.7 µM | HT-29 33 µM | K562 24.3 µM | KM12 21.6 µM | LOX IMVI 25.9 µM | MCF7 32.1 µM | MDA-MB-231 62.1 µM | MDA-MB-435 8.57 µM | MOLT-4 33.7 µM | NCI-H23 35.4 µM | OVCAR-3 19.2 µM | SF-539 21.9 µM | SK-MEL-2 24.9 µM | SNB-19 32.1 µM | T47D 31.3 µM | U-251 34.2 µM

O=C1OC(C(O)CO)C(C(O)CO)OC1=O (configuration not stated)
inactive: 786-0 > 10 µM | BT-549 > 10 µM | COLO 205 > 10 µM | HCC 2998 > 10 µM | HL-60 > 10 µM | HT-29 > 10 µM | K562 > 10 µM | KM12 > 10 µM | MCF7 > 10 µM | MDA-MB-231 > 10 µM | MDA-MB-435 > 10 µM | MOLT-4 > 10 µM | NCI-H23 > 10 µM | OVCAR-3 > 10 µM | SF-539 > 10 µM | SNB-19 > 10 µM | T47D > 10 µM | U-251 > 10 µM
